Reference: the supplement of paper PMC6045584
± gives the standard deviation of the averaged measurements.

Columns and labels:
[1] = compound: T1, CC[C@@]1(O)C(=O)OCc2c1cc1n(c2=O)Cc2cc3ccccc3nc2-1 [CAMPTOTHECIN]; test: surviving fraction relative to DMSO-only wells; higher = less growth inhibition; conditions: exposure time: 5 days
Outline: (§1)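 Surviving fraction is CellTiter-Glo luminescence divided by the median of wells given DMSO only. For this, log-phase tumour cell lines went into 384-well plates at 250–500 cells per well and, 24 hours later, into five days of continuous inhibitor exposure at 0.5, 1, 5, 10, 50, 100, 500 and 1000 nM. Lines were screened three times and retained only if replicate Pearson r >0.7 and median Z' >0.3.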

[2] = compound: T2, Cc1ccc(-c2cc(C(F)(F)F)nn2-c2ccc(S(N)(=O)=O)cc2)cc1 [CELECOXIB]; test: as above; conditions: exposure time: 5 days
Outline: as §1

[3] = compound: CC(=O)NCC(=O)N1[C@@H]2CC[C@H]1c1ccc(Nc3ncc(C(F)(F)F)c(NC4CCC4)n3)cc12; test: as above; conditions: exposure time: 5 days
Outline: as §1

[4] = compound: T3, CC(=O)O[C@H]1C(=O)[C@@]2(C)[C@H]([C@H](OC(=O)c3ccccc3)[C@]3(O)C[C@H](OC(=O)[C@H](O)[C@@H](NC(=O)c4ccccc4)c4ccccc4)C(C)=C1C3(C)C)[C@]1(OC(C)=O)CO[C@@H]1C[C@@H]2O [PACLITAXEL]; test: as above; conditions: exposure time: 5 days
Outline: as §1

[5] = compound: CC(=O)c1c(C)c2cnc(Nc3ccc(N4CCNCC4)cn3)nc2n(C2CCCC2)c1=O; test: as above; conditions: exposure time: 5 days
Outline: as §1

[6] = compound: T4, O=C(O)C1(C(=O)O)CCC1.[NH2-].[NH2-].[Pt+2] [CARBOPLATIN]; test: as above; conditions: exposure time: 5 days
Outline: as §1

[7] = compound: T5, COc1cc2ncnc(Nc3ccc(F)c(Cl)c3)c2cc1OCCCN1CCOCC1 [GEFITINIB]; test: as above; conditions: exposure time: 5 days
Outline: as §1

[8] = compound: T6, COCC[n+]1c2c(n(Cc3cnccn3)c1C)C(=O)c1ccccc1C2=O [YM155]; test: as above; conditions: exposure time: 5 days
Outline: as §1

[9] = compound: C[C@]1(O)C[C@@H](c2nc(-c3ccc4ccc(-c5ccccc5)nc4c3)c3c(N)nccn32)C1 [OSI-906]; test: as above; conditions: exposure time: 5 days
Outline: as §1

[10] = compound: T1, CAMPTOTHECIN; test: area under dose-response curve of surviving fraction (unscaled, Aref=0) (surviving fraction x log10(nM)); higher = more resistant; conditions: exposure time: 5 days; dose range 0.5-1000 nM
Outline: (§2)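 Each tumour cell line was screened three times in 384-well plates, receiving eight inhibitor concentrations from 0.5 to 1000 nM for five days. CellTiter-Glo luminescence gave viability, normalised to DMSO-only wells. Using the drc R package, surviving fractions were fitted with 3-parameter logistic dose-response curves, and the unscaled activity area over log10 dose (Aref = 0) was taken as the area under the curve.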

[11] = compound: T2, CELECOXIB; test: as above; conditions: exposure time: 5 days; dose range 0.5-1000 nM
Outline: as §2

[12] = compound: CC(=O)NCC(=O)N1[C@@H]2CC[C@H]1c1ccc(Nc3ncc(C(F)(F)F)c(NC4CCC4)n3)cc12; test: as above; conditions: exposure time: 5 days; dose range 0.5-1000 nM
Outline: as §2

[13] = compound: T3, PACLITAXEL; test: as above; conditions: exposure time: 5 days; dose range 0.5-1000 nM
Outline: as §2

[14] = compound: CC(=O)c1c(C)c2cnc(Nc3ccc(N4CCNCC4)cn3)nc2n(C2CCCC2)c1=O; test: as above; conditions: exposure time: 5 days; dose range 0.5-1000 nM
Outline: as §2

[15] = compound: T4, CARBOPLATIN; test: as above; conditions: exposure time: 5 days; dose range 0.5-1000 nM
Outline: as §2

[16] = compound: T5, GEFITINIB; test: as above; conditions: exposure time: 5 days; dose range 0.5-1000 nM
Outline: as §2

[17] = compound: T6, YM155; test: as above; conditions: exposure time: 5 days; dose range 0.5-1000 nM
Outline: as §2

YAMATO SYNOVIAL
surviving fraction ([1]; 0.5 nM): 0.118 ± 0.0092
surviving fraction ([1]; 1 nM): 0.562 ± 0.092
surviving fraction ([1]; 5 nM): 0.466 ± 0.035
surviving fraction ([1]; 10 nM): 0.479 ± 0.033
surviving fraction ([1]; 50 nM): 0.0957 ± 0.0085
surviving fraction ([1]; 100 nM): 0.247 ± 0.026
surviving fraction ([1]; 500 nM): 0.16 ± 0.0095
surviving fraction ([1]; 1000 nM): 0.284 ± 0.028
surviving fraction ([2]; 0.5 nM): 1.3 ± 0.17
surviving fraction ([2]; 1 nM): 1.38 ± 0.056
surviving fraction ([2]; 5 nM): 1.4 ± 0.12
surviving fraction ([2]; 10 nM): 1.47 ± 0.11
surviving fraction ([2]; 50 nM): 1.42 ± 0.11
surviving fraction ([2]; 100 nM): 1.47 ± 0.14
surviving fraction ([2]; 500 nM): 1.39 ± 0.094
surviving fraction ([2]; 1000 nM): 1.36 ± 0.21
surviving fraction ([3]; 0.5 nM): 1.06 ± 0.048
surviving fraction ([3]; 1 nM): 1.02 ± 0.049
surviving fraction ([3]; 5 nM): 1.1 ± 0.061
surviving fraction ([3]; 10 nM): 1.14 ± 0.058
surviving fraction ([3]; 50 nM): 0.994 ± 0.005
surviving fraction ([3]; 100 nM): 0.738 ± 0.023
surviving fraction ([3]; 500 nM): 0.622 ± 0.022
surviving fraction ([3]; 1000 nM): 0.543 ± 0.058
surviving fraction ([4]; 0.5 nM): 1.04 ± 0.16
surviving fraction ([4]; 1 nM): 0.891 ± 0.036
surviving fraction ([4]; 5 nM): 0.488 ± 0.069
surviving fraction ([4]; 10 nM): 0.464 ± 0.043
surviving fraction ([4]; 50 nM): 0.377 ± 0.012
surviving fraction ([4]; 100 nM): 0.359 ± 0.021
surviving fraction ([4]; 500 nM): 0.346 ± 0.0061
surviving fraction ([4]; 1000 nM): 0.426 ± 0.016
surviving fraction ([5]; 0.5 nM): 1.2 ± 0.07
surviving fraction ([5]; 1 nM): 1.14 ± 0.065
surviving fraction ([5]; 5 nM): 1.28 ± 0.11
surviving fraction ([5]; 10 nM): 1.23 ± 0.14
surviving fraction ([5]; 50 nM): 1.3 ± 0.061
surviving fraction ([5]; 100 nM): 1.25 ± 0.047
surviving fraction ([5]; 500 nM): 0.984 ± 0.034
surviving fraction ([5]; 1000 nM): 0.935 ± 0.056
surviving fraction ([6]; 0.5 nM): 1.17 ± 0.066
surviving fraction ([6]; 1 nM): 1.33 ± 0.069
surviving fraction ([6]; 5 nM): 1.34 ± 0.11
surviving fraction ([6]; 10 nM): 1.31 ± 0.051
surviving fraction ([6]; 50 nM): 1.34 ± 0.029
surviving fraction ([6]; 100 nM): 1.29 ± 0.11
surviving fraction ([6]; 500 nM): 1.248 ± 0.0092
surviving fraction ([6]; 1000 nM): 1.29 ± 0.051
surviving fraction ([7]; 0.5 nM): 1.24 ± 0.098
surviving fraction ([7]; 1 nM): 1.21 ± 0.05
surviving fraction ([7]; 5 nM): 1.25 ± 0.043
surviving fraction ([7]; 10 nM): 1.36 ± 0.15
surviving fraction ([7]; 50 nM): 1.42 ± 0.086
surviving fraction ([7]; 100 nM): 1.32 ± 0.1
surviving fraction ([7]; 500 nM): 1.35 ± 0.08
surviving fraction ([7]; 1000 nM): 1.09 ± 0.046
surviving fraction ([8]; 0.5 nM): 0.656 ± 0.066
surviving fraction ([8]; 1 nM): 0.874 ± 0.067
surviving fraction ([8]; 5 nM): 0.39 ± 0.039
surviving fraction ([8]; 10 nM): 0.29 ± 0.027
surviving fraction ([8]; 50 nM): 0.229 ± 0.014
surviving fraction ([8]; 100 nM): 0.206 ± 0.0017
surviving fraction ([8]; 500 nM): 0.191 ± 0.015
surviving fraction ([8]; 1000 nM): 0.267 ± 0.016
surviving fraction ([9]; 0.5 nM): 0.866 ± 0.13
surviving fraction ([9]; 1 nM): 0.936 ± 0.04
surviving fraction ([9]; 5 nM): 0.995 ± 0.069
surviving fraction ([9]; 10 nM): 0.986 ± 0.082
surviving fraction ([9]; 50 nM): 1.36 ± 0.22
surviving fraction ([9]; 100 nM): 1.46 ± 0.13
surviving fraction ([9]; 500 nM): 1.17 ± 0.21
surviving fraction ([9]; 1000 nM): 1.12 ± 0.077
area under dose-response curve [10]: 0.991
area under dose-response curve [11]: 4.62
area under dose-response curve [12]: 2.87
area under dose-response curve [13]: 1.69
area under dose-response curve [14]: 3.92
area under dose-response curve [15]: 4.26
area under dose-response curve [16]: 4.25
area under dose-response curve [17]: 1.2
